Read-outs that look alike come from different tables or passages of the source.
Columns and labels:
[1] = test system: collagen-induced platelet aggregation; test: Platelet aggregation-inhibiting action after oral administration to rats; conditions: Rattus norvegicus, 1 h, read-out: Inhibition of aggregation, ED 33%
Procedure: The substances were administered orally to male Sprague-Dawley rats (200-250 g). 1 hour after administration, samples of blood were taken under ether anesthetic, and platelet-rich plasma was obtained by centrifugation (300 g, 10 minutes at 4° C.). The platelet aggregation was measured photometrically, with the addition of MgCl2 and (end concentration of 10 mmoles/l) and Collagen Stago (end concentration of 0.02 mg/ml), in a Mark 3 Born Aggregometer. The maximum change in extinction/second was used as a measure of the aggregation.

[2] = test system: creatine phosphate concentration in the myocardium; test: Cardio-protective action against hypoxic cardiac metabolism disorders, oral, rats; type: in vivo, rat (Wistar); conditions: compounds 2-40 mg/kg, verapamil up to 40 mg/kg
Procedure: A drastic depletion of energy-rich phosphates in the mycocardium of anesthetized rats (Wistar, weight: 250-350 g, anesthetic: thiobutabarbital 100 mg/kg i.p.) was produced by standardized respiration with an oxygen-deficient mixture (2% of O2).
The test substances were administered to the still conscious animals 6 hours before the oxygen-deficient respiration. The percentage difference between the creatine phosphate concentration in the myocardium of animals pretreated with the test substance and that of the untreated hypoxic control animals was determined.

systolic blood pressure = test: Antihypertensive action, spontaneously hypertensive rats (SHR), oral; type: in vivo; conditions: for Lowering of systolic blood pressure, R.A. (relative activity; verapamil = 1.00) / ED20: SHR, peroral; for ED20: Rattus norvegicus, po, read-out: Lowering of systolic blood pressure, ED 20%; for Antihypertensive action (in words): after 24 hours, SH rats, verapamil at 100 mg/kg
Procedure: The substances were administered orally to male spontaneously hypertensive rats (SHR) of the Okamoto strain (weight: 300-400 g). The systolic blood pressure was determined non-operatively on the tails of the rats by piezo-crystal measurements before and 2, 6, 24 and, where relevant, 30 hours after administration.
The dose which reduced the systolic pressure by 20%, taking into consideration the values from untreated control animals, was taken as the ED 20%.

[3] = test system: passive cutaneous anaphylaxis (PCA); test: Antiallergic action, passive cutaneous anaphylaxis (PCA) in rats, oral; type: in vivo, rat (male); conditions: for % inhibition (diameter of colored spot, PCA): 21.5 mg/kg oral
Procedure: The model of passive cutaneous anaphylaxis (PCA) was used for this test.
Anesthetized male rats (100-140 g) were sensitized by intradermal injection (shaven dorsal skin) of 0.1 ml of an ovalbumin antiserum. After a sensitizing period of about 48 hours, they were treated with the test substances (oral administration). After various latency periods (2, 6, 12 and 24 hours), the experimental animals were injected intravenously with an antigen/Evans blue solution. The animals were sacrificed in each case 30 minutes after the injection, and the dorsal skin was removed and the circular blue stain on the inner surface measured.
The antiallergic action was quoted as the relative inhibition (Δ%) of the diameter of the colored spot.

Row | Compound | ED33 [1] [mg/kg] | Lowering of systolic blood pressure, R.A. (relative activity; verapamil = 1.00) (systolic blood pressure; 2 hrs) | Lowering of systolic blood pressure, R.A. (relative activity; verapamil = 1.00) (systolic blood pressure; 6 hrs) | ED20 (systolic blood pressure; 2 hrs) [mg/kg] | ED20 (systolic blood pressure; 6 hrs) [mg/kg] | ED20 (systolic blood pressure; 24 hrs) [mg/kg] | further results
1 | CCCCCCCCCCCCCCCC(C#N)(CCCN(C)CCc1cccc(OC)c1)c1cccc(OC)c1 (stereo not drawn) [Example 6, 1,7-bis-(3-Methoxyphenyl)-3-methylaza-7-cyano-docosane] | 49 |  |  |  |  |  | 
2 | CCCCCCCCCCCCC(C#N)(CCCN(C)CCc1ccccc1)c1ccccc1 (stereo not drawn) [Example 5, 1,7-Diphenyl-3-methylaza-7-cyano-nonadecane] |  |  |  |  |  |  | Cardio-protective action (in words) [2]: particularly powerful action
3 | CCCCCCCCCCCCC(C#N)(CCCN(C)CCc1cccc(OC)c1)c1cc(OC)c(OC)c(OC)c1 (stereo not drawn) [Example 20, 1-(3-Methoxyphenyl)-3-methylaza-7-cyano-7-(3,4,5-trimethoxyphenyl)-nonadecane] |  | 6.27 | 3.12 | 3.7 | 6.6 | 12.5 | Antihypertensive action (in words) (systolic blood pressure): still have an antihypertensive action
4 | CCCCCCCCCCCCC(C#N)(CCCN(C)CCc1ccc(SCC)cc1)c1cccc(OC)c1 (stereo not drawn) [Example 42, 1-(4-Ethylmercaptophenyl)-3-methylaza-7-cyano-7-(3-methoxyphenyl)-nonadecane] |  | 2.25 |  | 0.3 |  | 58.3 | 
5 | COc1ccc(CCN(C)CCCC(C#N)(c2ccc(OC)c(OC)c2)C(C)C)cc1OC (stereo not drawn) [Verapamil, 1,7-bis-(3,4-dimethoxyphenyl)-3-methylaza-7-cyano-8-methyl-nonane, reference compound] |  |  |  | 23.2 | 20.6 |  | Antihypertensive action (in words) (systolic blood pressure): ineffective; % inhibition (diameter of colored spot, PCA) ([3]; latency period 2 hours): 53%; % inhibition (diameter of colored spot, PCA) ([3]; latency period 6 hours): 50%; % inhibition (diameter of colored spot, PCA) ([3]; latency period 12 hours): 33%; % inhibition (diameter of colored spot, PCA) ([3]; latency period 24 hours): 31%
6 | CCCCCCCCCCCCC(C#N)(CCCNCCc1cccc(OC)c1)c1cccc(OC)c1 (stereo not drawn) [Example 75, 1,7-bis-(3-Methoxyphenyl)-3-aza-7-cyano-nonadecane] | 90.2 |  |  |  |  |  | 
7 | CCCCCCCCCCCCC(C#N)(CCCN(C)CCc1cccc(OC)c1)c1ccc(OC)c(OC)c1 (stereo not drawn) [Example 19, 1-(3-Methoxyphenyl)-3-methylaza-7-cyano-7-(3,4-dimethoxyphenyl)-nonadecane] |  | 3.09 | 1.04 | 7.5 | 19.8 | 46.4 | 
8 | 1-(3,5-Diethoxyphenyl)-3-methylaza-7-cyano-7-(3-ethoxyphenyl)-docosane [Example 68] |  |  |  |  |  |  | Cardio-protective action (in words) [2]: particularly powerful action
9 | CCCCCCCCCCCCC(C#N)(CCCN(C)CCc1cc(OC)cc(OC)c1)c1cccc(OCC)c1 (stereo not drawn) [Example 70, 1-(3,5-Dimethoxyphenyl)-3-methylaza-7-cyano-7-(3-ethoxyphenyl)-nonadecane] | 119 |  |  |  |  |  | 
10 | CCCCCCCCCCCCC(C#N)(CCCN(C)CCc1cccc(OC)c1)c1cccc(OC)c1 (stereo not drawn) [Example 3, 1,7-bis-(3-Methoxyphenyl)-3-methylaza-7-cyano-nonadecane] | 9.6 | 0.93 | 1.46 | 24.9 | 14.1 | 18.7 | Antihypertensive action (in words) (systolic blood pressure): still have an antihypertensive action; Cardio-protective action (in words) [2]: particularly powerful action; % inhibition (diameter of colored spot, PCA) ([3]; latency period 2 hours): 15%; % inhibition (diameter of colored spot, PCA) ([3]; latency period 6 hours): 40%; % inhibition (diameter of colored spot, PCA) ([3]; latency period 12 hours): 83%; % inhibition (diameter of colored spot, PCA) ([3]; latency period 24 hours): 68%; Antiallergic action (in words) ([3]; after oral administration): long-lasting antiallergic action; Antiallergic action compared with verapamil (in words) ([3]; latency periods of 12 and 24 hours, oral): substantially more powerful action
11 | CCCCCCCCCCCC(C#N)(CCCN(C)CCc1cccc(OC)c1)c1cccc(OC)c1 (stereo not drawn) [Example 25, 1,7-bis-(3-Methoxyphenyl)-3-methylaza-7-cyano-octadecane] |  | 3.41 | 2.02 | 6.8 | 10.2 | 46.4 | 

From patent US4438131A, “.OMEGA.-Cyano-1, .OMEGA.-diphenyl-azaalkane derivatives, their preparation and drugs containing them” (BASF Aktiengesellschaft, priority 1981, dated 1984)
